Values of other authors in patent US9320791B2, “Peptides from chaperonin 60.1” (PE[…], priority 2011, dated 2016).

Test system: recruitment of eosinophils
Settings: animal model of allergic airway inflammation; disclosed in WO2009/106819

DGSVVVNKVSELPAGHGLNVNTLSYGDLAAD (listed as Mycobacterium tuberculosis) [Peptide 4, peptide derivable from MtCpn60.1 disclosed in WO2009/106819]
recruitment of eosinophils: significantly reduce
